Source: PubChem BioAssay AID1963966 (Molecular Pharmacology Branch, DTP, NCI, 2024)

System: 935938-334-R-J1-PDC spheroids with HUVEC/MSC, viability
Test: Anticancer human tumor 935938-334-R-J1-PDC patient-derived small intestine adenocarcinoma cell line growth inhibition [PI3K]
Settings: for IC50: curve of first compound; for viability, T/C: stronger effect = lower value; active = viability on the fitted dose curve at most 10% of control; inactive = the rest
Method in brief: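 We assembled tumor spheroids that included a stromal compartment of HUVEC and MSCs, then exposed them to targeted agents alone and together with PI3K pathway inhibitors. Concentration series descended by half-log from clinically achievable Cmax levels. Viability served as the endpoint.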
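Also: compound exposure lasted seven days before viability was read.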
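For viability, T/C in this document: percent of vehicle DMSO treated spheroid viability so 100% = untreated.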

CC(=O)c1c(C)c2cnc(Nc3ccc(N4CCNCC4)cn3)nc2n(C2CCCC2)c1=O + CC(Nc1ncnc2nc[nH]c12)c1cc2cccc(Cl)c2c(=O)n1-c1ccccc1
inactive: viability, T/C (second compound 0.0316 µM, first compound 0.000316 µM) 105% | viability, T/C (second compound 0.0316 µM, first compound 0.001 µM) 108% | viability, T/C (second compound 0.0316 µM, first compound 0.00316 µM) 99% | viability, T/C (second compound 0.0316 µM, first compound 0.01 µM) 97.2% | viability, T/C (second compound 0.0316 µM, first compound 0.0316 µM) 90% | viability, T/C (second compound 0.0316 µM, first compound 0.1 µM) 73% | viability, T/C (second compound 0.1 µM, first compound 0.000316 µM) 103% | viability, T/C (second compound 0.1 µM, first compound 0.001 µM) 103% | viability, T/C (second compound 0.1 µM, first compound 0.00316 µM) 93% | viability, T/C (second compound 0.1 µM, first compound 0.01 µM) 69.5% | viability, T/C (second compound 0.1 µM, first compound 0.0316 µM) 91.5% | viability, T/C (second compound 0.1 µM, first compound 0.1 µM) 74.6% | viability, T/C (second compound 0.316 µM, first compound 0.000316 µM) 68.6% | viability, T/C (second compound 0.316 µM, first compound 0.001 µM) 91.2% | viability, T/C (second compound 0.316 µM, first compound 0.00316 µM) 105% | viability, T/C (second compound 0.316 µM, first compound 0.01 µM) 89.7% | viability, T/C (second compound 0.316 µM, first compound 0.0316 µM) 71.6% | viability, T/C (second compound 0.316 µM, first compound 0.1 µM) 64.9% | viability, T/C (second compound 1 µM, first compound 0.000316 µM) 99.8% | viability, T/C (second compound 1 µM, first compound 0.001 µM) 109% | viability, T/C (second compound 1 µM, first compound 0.00316 µM) 93% | viability, T/C (second compound 1 µM, first compound 0.01 µM) 88.5% | viability, T/C (second compound 1 µM, first compound 0.0316 µM) 69.5% | viability, T/C (second compound 1 µM, first compound 0.1 µM) 53.4% | viability, T/C (second compound 3.16 µM, first compound 0.000316 µM) 96.7% | viability, T/C (second compound 3.16 µM, first compound 0.001 µM) 111% | viability, T/C (second compound 3.16 µM, first compound 0.00316 µM) 97.6% | viability, T/C (second compound 3.16 µM, first compound 0.01 µM) 86.3% | viability, T/C (second compound 3.16 µM, first compound 0.0316 µM) 73.5% | viability, T/C (second compound 3.16 µM, first compound 0.1 µM) 44.1% | viability, T/C (second compound 10 µM, first compound 0.000316 µM) 87.1% | viability, T/C (second compound 10 µM, first compound 0.001 µM) 83.7% | viability, T/C (second compound 10 µM, first compound 0.00316 µM) 78.4% | viability, T/C (second compound 10 µM, first compound 0.01 µM) 67.1% | viability, T/C (second compound 10 µM, first compound 0.0316 µM) 56.7% | viability, T/C (second compound 10 µM, first compound 0.1 µM) 40.2%
> 0.1 µM: IC50 (second compound 0.0316 µM) | IC50 (second compound 0.1 µM) | IC50 (second compound 0.316 µM) | IC50 (second compound 1 µM)
0.0794 µM: IC50 (second compound 3.16 µM)
0.049 µM: IC50 (second compound 10 µM)
